Data taken from US20190249218A1, “Method, Medium and Kit for Detecting Multiple Aminoglycoside Resistance Including 16S rRNA Methylase Mediated Resistance in Gram-Negative Bacteria” (priority 2016, published 2019).
Values after ≈ are worked out from the molar mass of the structure shown. Read-outs that look alike come from different tables or passages of the source.

What was measured:
A. baumannii = assay: MIC by broth microdilution; type: cell-based, Acinetobacter baumannii; conditions: Acinetobacter baumannii
Procedure: (§1) MICs of amikacin and gentamicin were determined using the broth microdilution method in cation-adjusted Mueller-Hinton broth, as recommended by the Clinical Laboratory Standard Institute (CLSI) guidelines (8). Amikacin and gentamicin sulfate (Fluorochem, Dertbyshire, UK) were tested over a range of dilutions from 0.25 to 256 μg/ml. A final inoculum of 5.10^5 CFU/ml of each strain was distributed in the 96 wells tray (Sarstedt, Ntimbrecht, Germany). All experiments were repeated in triplicate and E. coli ATCC 25922 was used as quality control. According to the CLSI breakpoints (9), Enterobacteriaceae isolates with gentamicin MICs≤4 and amikacin MICs≤16 mg/L were categorized as susceptible, while those with gentamicin MICs≥16 and amikacin MICs≥64 mg/L were categorized as resistant.
(§2) MICs of amikacin and gentamicin were determined as described above in Example 1.

E. coli = assay: MIC by broth microdilution; type: cell-based, Escherichia coli; conditions: for MIC: Escherichia coli, read-out: MIC
Procedure: as §1, §2

[1] = isolate 92/31, E. coli, AAC(3)-IV
[2] = isolate 390, E. coli, AAC(3)-IV
[3] = isolate 1054 (first entry), E. coli, AAC(6′)-I
[4] = isolate 1054 (second entry), E. coli, AAC(6′)-I
[5] = isolate 1488, E. coli, AAC(6′)-II
[6] = isolate 4000, E. coli, APH(3′)-I + AAC(3)-V
[7] = isolate 22089, E. coli, AAC(3)-I + AAC(3)-V
[8] = isolate 122971, E. coli, ANT(2″)
[9] = isolate R1436, E. coli, AG susceptible
[10] = isolate R1438, E. coli, AG susceptible

Compound `NCC[C@H](O)C(=O)N[C@@H]1C[C@H](N)[C@@H](O[C@H]2O[C@H](CN)[C@@H](O)[C@H](O)[C@H]2O)[C@H](O)[C@H]1O[C@H]1O[C@H](CO)[C@@H](O)[C@H](N)[C@H]1O` [Amikacin] has an MIC (A. baumannii) of 128 µg/mL (≈ 219 µM), an MIC (A. baumannii; strain 4996, A. baumannii, AAC(6′)-I, read-out: MIC) of 64 µg/mL (≈ 109 µM) and an MIC (A. baumannii; strain BM2580, A. baumannii, APH(3′)-VI, read-out: MIC) of 64 µg/mL (≈ 109 µM). It also gave an MIC (A. baumannii; strain R264, A. baumannii, armA, read-out: MIC) greater than 512 µg/mL, an MIC (A. baumannii; strain R1395, A. baumannii, susceptible, read-out: MIC) of 2 µg/mL (≈ 3.42 µM) and an MIC (E. coli; ATCC25922, isolate FR136, E. coli ATCC 25922, AG susceptible) of 2 µg/mL (≈ 3.42 µM). The MIC (E. coli; ATCC25922, strain R2298, E. coli ATCC 25922, susceptible) was 2 µg/mL (≈ 3.42 µM), the MIC (E. coli; ATCC35218, isolate R2278, E. coli ATCC 35218, AG susceptible) was 4 µg/mL (≈ 6.83 µM) and the MIC (E. coli; ATCC35218, strain R2278, E. coli ATCC 35218, susceptible) was 4 µg/mL (≈ 6.83 µM). For the same compound, the MIC (E. coli; isolate 62Carb, E. coli, rmtB) was greater than 256 µg/mL, the MIC (E. coli; [1]) was 4 µg/mL (≈ 6.83 µM) and the MIC (E. coli; isolate 97, E. coli, AAC(3)-IV) was 2 µg/mL (≈ 3.42 µM). It also gave an MIC (E. coli; [2]) of 16 µg/mL (≈ 27.3 µM), an MIC (E. coli; [3]) of 8 µg/mL (≈ 13.7 µM) and an MIC (E. coli; [4]) of 16 µg/mL (≈ 27.3 µM). For the same compound, the MIC (E. coli; [5]) was 4 µg/mL (≈ 6.83 µM), the MIC (E. coli; [6]) was 4 µg/mL and the MIC (E. coli; [7]) was 16 µg/mL. The MIC (E. coli; [8]) was 4 µg/mL (≈ 6.83 µM), the MIC (E. coli; isolate E28, E. coli, rmtB) was greater than 256 µg/mL and the MIC (E. coli; isolate R107, E. coli, rmtB) was greater than 256 µg/mL. It also gave an MIC (E. coli; isolate R1012, E. coli, armA) greater than 256 µg/mL, an MIC (E. coli; [9]) of 2 µg/mL (≈ 3.42 µM) and an MIC (E. coli; [10]) of 2 µg/mL (≈ 3.42 µM). For the same compound, the MIC (E. coli; isolate R4100, E. coli TOP10, npmA) was 128 µg/mL (≈ 219 µM), the MIC (E. coli; isolate RP4, E. coli, APH(3′)-Ib) was 1 µg/mL (≈ 1.71 µM) and the MIC (E. coli; isolate pFCT1163, E. coli, AAC(6′)-Ia) was 128 µg/mL (≈ 219 µM). The MIC (E. coli; isolate pFCT4392, E. coli, AAC(3)-Ia) was 1 µg/mL (≈ 1.71 µM), the MIC (E. coli; isolate pWP701, E. coli, AAC(3)-IV) was 1 µg/mL (≈ 1.71 µM) and the MIC (E. coli; strain 62Carb, E. coli, rmtB) was greater than 512 µg/mL. The MIC (E. coli; strain 92/31, E. coli, AAC(3)-IV) was 4 µg/mL (≈ 6.83 µM), the MIC (E. coli; strain 97, E. coli, AAC(3)-IV) was 2 µg/mL (≈ 3.42 µM) and the MIC (E. coli; strain 390, E. coli, AAC(3)-IV) was 16 µg/mL (≈ 27.3 µM). The MIC (E. coli; strain 1054a, E. coli, AAC(6′)-I) was 8 µg/mL (≈ 13.7 µM), the MIC (E. coli; strain 1054b, E. coli, AAC(6′)-I) was 16 µg/mL (≈ 27.3 µM) and the MIC (E. coli; strain 1488, E. coli, AAC(6′)-II) was 4 µg/mL (≈ 6.83 µM). For the same compound, the MIC (E. coli; strain 4000, E. coli, APH(3′)-I + AAC(3)-V) was 4 µg/mL, the MIC (E. coli; strain 22089, E. coli, AAC(3)-I + AAC(3)-V) was 16 µg/mL and the MIC (E. coli; strain 122971, E. coli, ANT(2″)) was 4 µg/mL (≈ 6.83 µM). For the same compound, the MIC (E. coli; strain E28, E. coli, rmtB) was greater than 512 µg/mL, the MIC (E. coli; strain R107, E. coli, rmtB) was greater than 512 µg/mL and the MIC (E. coli; strain R1012, E. coli, armA) was greater than 512 µg/mL. The MIC (E. coli; strain R1436, E. coli, susceptible) was 2 µg/mL (≈ 3.42 µM), the MIC (E. coli; strain R1438, E. coli, susceptible) was 2 µg/mL (≈ 3.42 µM) and the MIC (E. coli; strain R4100, E. coli, npmA) was 258 µg/mL (≈ 441 µM). For the same compound, the MIC (E. coli; strain RP4, E. coli, APH(3′)-Ib) was 1 µg/mL (≈ 1.71 µM), the MIC (E. coli; strain pFCT1163, E. coli, AAC(6′)-Ia) was 128 µg/mL (≈ 219 µM) and the MIC (E. coli; strain pFCT4392, E. coli, AAC(3)-Ia) was 1 µg/mL (≈ 1.71 µM). For the same compound, the MIC (E. coli; strain pWP701, E. coli, AAC(3)-IV) was 1 µg/mL (≈ 1.71 µM), the “Amikacin Phenotype” value (E. coli; isolate 62Carb, E. coli, rmtB) was “R (amikacin MICs≥64 mg/L were categorized as resistant)” and the “Amikacin Phenotype” value (E. coli; [1]) was “S (amikacin MICs≤16 mg/L were categorized as susceptible)”. The “Amikacin Phenotype” value (E. coli; isolate 97, E. coli, AAC(3)-IV) was “S (amikacin MICs≤16 mg/L were categorized as susceptible)”, the “Amikacin Phenotype” value (E. coli; [2]) was “S (amikacin MICs≤16 mg/L were categorized as susceptible)” and the “Amikacin Phenotype” value (E. coli; [3]) was “S (amikacin MICs≤16 mg/L were categorized as susceptible)”. The “Amikacin Phenotype” value (E. coli; [4]) was “S (amikacin MICs≤16 mg/L were categorized as susceptible)”, the “Amikacin Phenotype” value (E. coli; [5]) was “S (amikacin MICs≤16 mg/L were categorized as susceptible)” and the “Amikacin Phenotype” value (E. coli; [6]) was “S (amikacin MICs≤16 mg/L were categorized as susceptible)”. The “Amikacin Phenotype” value (E. coli; [7]) was “S (amikacin MICs≤16 mg/L were categorized as susceptible)”, the “Amikacin Phenotype” value (E. coli; [8]) was “S (amikacin MICs≤16 mg/L were categorized as susceptible)” and the “Amikacin Phenotype” value (E. coli; isolate E28, E. coli, rmtB) was “R (amikacin MICs≥64 mg/L were categorized as resistant)”. For the same compound, the “Amikacin Phenotype” value (E. coli; isolate FR136, E. coli ATCC 25922, AG susceptible) was “S (amikacin MICs≤16 mg/L were categorized as susceptible)”, the “Amikacin Phenotype” value (E. coli; isolate R107, E. coli, rmtB) was “R (amikacin MICs≥64 mg/L were categorized as resistant)” and the “Amikacin Phenotype” value (E. coli; isolate R262, E. coli, rmtC) was “R (amikacin MICs≥64 mg/L were categorized as resistant)”. For the same compound, the “Amikacin Phenotype” value (E. coli; isolate R451, E. coli, rmtC) was “R (amikacin MICs≥64 mg/L were categorized as resistant)”, the “Amikacin Phenotype” value (E. coli; isolate R989, E. coli, armA) was “R (amikacin MICs≥64 mg/L were categorized as resistant)” and the “Amikacin Phenotype” value (E. coli; isolate R990, E. coli, rmtB) was “R (amikacin MICs≥64 mg/L were categorized as resistant)”. The “Amikacin Phenotype” value (E. coli; isolate R1012, E. coli, armA) was “R (amikacin MICs≥64 mg/L were categorized as resistant)”, the “Amikacin Phenotype” value (E. coli; [9]) was “S (amikacin MICs≤16 mg/L were categorized as susceptible)” and the “Amikacin Phenotype” value (E. coli; [10]) was “S (amikacin MICs≤16 mg/L were categorized as susceptible)”.
